Test system: relapse-remitting EAE model induced with PLP139-151 peptide in SJL mice
Assay: SJL EAE model, therapeutic treatment (Example 3), clinical results
Type: in vivo
Details: for MMS ± SD: Day 0-42; for MMS ± SD / Incidence of relapse (%) / MMS of relapse period ± SD (Days 18-42) / End % body weight ± SD / End score ± SD: PO QD day ~11 - day 42; for MMS until Day 17 ± SD: acute phase, PO QD from day ~11; for End % body weight ± SD / End score ± SD: end of study
Experimental: The SJL EAE model is a Th17/Th1-mediated mouse model of relapsing-remitting neuroinflammatory disease that is induced via immunization with proteolipid protein (PLP), a major protein constituent of CNS myelin. Disease pathology is due to infiltration of immune cells in the CNS leading to decreased motor function and paralysis. Briefly, in this model mice are injected subcutaneously with an emulsion of PLP-peptide plus CFA and intraperitoneally with pertussis toxin on day 0. Acute neuroinflammatory disease develops between day 10 to day 16, and the relapsing-remitting disease phase occurs from day 20 to day 45. Mice are dosed daily from the day of sensitization through the end of the study by oral gavage. In a therapeutic model, dosing of the mice begins on the second day of disease (~ Day 11 after disease induction). Mice are scored daily for a decrease in motor function and complete paralysis in the tail and limbs. Histopathology is carried out to score the frequency of inflammatory infiltrates and demyelination in the spinal cord.
The model details and read-outs, and methods are described below. Treatment began two days after disease onset, around day ~11 (mice were enrolled on the second day of disease for each mouse).
Experimental Autoimmune Encephalomyelitis. Female SJL mice (8-10 weeks old) were subcutaneously injected at four sites with myelin proteolipid protein (PLP) 139-151 in CFA emulsion (0.05 mL/injection site; ~0.5 mg PLP PLP139-151/mL; Hooke Laboratories; EK-2120). Following immunization, EAE induction was completed by intraperitoneal injections of pertussis toxin (6 µg/mL; 0.1 mL/mouse) within 2 hours of immunization. Mice were randomized into groups and monitored for EAE clinical score over the course of 42 days. Disease progression was scored blinded of treatment or prior measurements. Disease severity was scored using standard EAE criteria: 0 (normal); 1 (loss of tail tone); 2 (hind limb weakness); 3 (hind limb paralysis); 4 (hind limb paralysis and forelimb paralysis or weakness); 5 (morbidity/death). Mice were observed daily for clinical symptoms.
• Vehicle (anaerobic sucrose buffer) PO QD day ~11 - day 42 • G.I. Strain A 10 mg/dose PO QD day ~11 - day 42 • Fingolimod, 1 mg/kg PO QD day ~11 - day 42 • Fingolimod, 0.1 mg/kg PO QD day ~11 - day 42
G.I. Strain A was prepared as a lyophilized powder and was gamma irradiated prior to use.

[1] = Strain A 10 mg/dose, Fingolimod 1 mg/kg

CCCCCCCCc1ccc(CCC(N)(CO)CO)cc1 [Fingolimod]
MMS ± SD (Fingolimod 0.1 mg/kg): 3.20±0.70
MMS ± SD [1]: 3.13±0.52
Incidence of relapse (%) (Fingolimod 0.1 mg/kg): 28.6%
MMS of relapse period ± SD (Days 18-42) (Fingolimod 0.1 mg/kg): 1.77±1.53
Incidence of relapse (%) [1]: 0%
MMS of relapse period ± SD (Days 18-42) [1]: 0.83±0.67
MMS until Day 17 ± SD (Fingolimod 0.1 mg/kg): 3.13 ± 0.69
MMS until Day 17 ± SD [1]: 3.13±0.52
End % body weight ± SD (Fingolimod 0.1 mg/kg): 95.2±11.1%
End score ± SD (Fingolimod 0.1 mg/kg): 0.97±1.45
End % body weight ± SD [1]: 101.8±12.0%
End score ± SD [1]: 0.10±0.21
